Like-named read-outs stand apart in the source and are kept apart here.
Columns and labels:
[1] = tested on: international normalized ratio (INR); test: Single ascending-dose study: INR; assay type: in vivo, human; conditions: for mean maximum INR: 0–24 h post-dose
[2] = tested on: activated partial thromboplastin time (aPTT); test: Single ascending-dose study: aPTT; assay type: in vivo, human
[3] = tested on: modified prothrombin time (mPT); test: Single ascending-dose study: modified prothrombin time; assay type: in vivo, human
[4] = tested on: international normalized ratio (INR); test: Food effect study: INR; assay type: in vivo, human; conditions: for INR Mean (SD) change from baseline: 3 h after 10 mg oral tablet
[5] = tested on: activated partial thromboplastin time (aPTT); test: Food effect study: aPTT; assay type: in vivo, human; conditions: 3 h after 10 mg oral tablet
prothrombin time (PT) = test: Food effect study: PT; assay type: in vivo, human; conditions: 3 h after 10 mg oral tablet
[6] = Single ascending-dose study: template bleeding time; assay type: in vivo, human; conditions: between pre-dose and 3.5 h post-dose
[7] = Single ascending-dose study: safety assessments; assay type: in vivo, human
[8] = Food effect study: safety assessments; assay type: in vivo, human
[9] = 10 mg, high fat, high calorie meal vs fasted
[10] = oral; cited from earlier work
venous thrombosis = conditions: at doses that preserved haemostasis; cited from earlier work
thromboembolic events = conditions: patients who had received total knee or hip replacement surgery; cited from earlier work
clinical [11] = conditions: human, plasma; for half-life: oral; for AUC(0-inf) / AUC(0-t) / Cmax / Tmax: po; for Tmax: Median tmax, range over doses
clinical [12] = conditions: human, plasma, oral, 10 mg; for AUC(0-t): AUC(0,t) Adjusted geometric mean; for AUC(0-inf): AUC(0,∞) Adjusted geometric mean; for Cmax: Cmax Adjusted geometric mean
[13] = high calorie, high fat breakfast; cited from earlier work
[14] = cited from earlier work
[15] = single 10 mg dose following standard high calorie, high fat meal
[16] = single 20 mg dose following a similar meal

COc1ccc(-n2nc(C(N)=O)c3c2C(=O)N(c2ccc(N4CCCCC4=O)cc2)CC3)cc1 [apixaban, 1-(4-methoxyphenyl)-7-oxo-6-(4-(2-oxopiperidin-1-yl)phenyl)-4,5,6,7-tetrahydro-1H -pyrazolo[3,4-c]pyridine-3-carboxamide]
mean % change from baseline in maximum INR ([1]; 10 mg dose): 19.5% | mean % change from baseline in maximum INR ([1]; 25 mg dose): 44.1% | mean maximum INR ([1]; 25 mg dose): 1.45 | mean % change from baseline in maximum INR ([1]; 50 mg dose): 55.8% | mean maximum INR ([1]; 50 mg dose): 1.71 | peak INR increase from baseline ([1]; after a 50 mg dose): 1.6 fold | time until changes in pharmacodynamic parameters were evident ([1]; following a single dose, clotting assay parameters (INR, aPTT and mPT)): less than 1 h | mean % change from baseline in maximum aPTT ([2]; 25 mg dose): 25.7% | mean maximum aPTT ([2]; 25 mg dose, baseline 30.4 s): 38.2 s | mean % change from baseline in maximum aPTT ([2]; 50 mg dose): 23.1% | mean maximum aPTT ([2]; 50 mg dose, baseline 28.6 s): 35.1 s | peak aPTT increase from baseline ([2]; after a 50 mg dose): 1.2 fold | mean % change from baseline in maximum mPT ([3]; 2.5 mg dose): 35.0% | mean % change from baseline in maximum mPT ([3]; 5 mg dose): 42.9% | mean % change from baseline in maximum mPT ([3]; 10 mg dose): 87.1% | mean % change from baseline in maximum mPT ([3]; 25 mg dose): 135.3% | mean % change from baseline in maximum mPT ([3]; 50 mg dose): 187.1% | peak mPT increase from baseline ([3]; after a 50 mg dose): 2.9 fold | individual INR (highest) ([4]; 10 mg, fed and fasted): ≤ 2.0 | time for INR, aPTT and PT to return to baseline ([4]; 10 mg, fed and fasted): ≤ 24 h | INR Mean (SD) change from baseline ([4]; fasted, n = 23): 0.23 (0.13) | INR Mean (SD) change from baseline ([4]; fed, n = 22): 0.20 (0.12) | aPTT Mean (SD) ([5]; fasted, n = 23): 32.96 (3.59) | aPTT Mean (SD) change from baseline ([5]; fasted, n = 23): 3.05 (2.59) | aPTT Mean (SD) ([5]; fed, n = 22): 31.55 (3.02) | aPTT Mean (SD) change from baseline ([5]; fed, n = 22): 2.90 (2.21) | PT Mean (SD) (prothrombin time (PT); fasted, n = 23): 14.99 (1.24) | PT Mean (SD) change from baseline (prothrombin time (PT); fasted, n = 23): 1.39 (0.89) | PT Mean (SD) (prothrombin time (PT); fed, n = 22): 14.66 (0.97) | PT Mean (SD) change from baseline (prothrombin time (PT); fed, n = 22): 1.30 (0.85) | change in template bleeding time [6]: ≤ 1 min | subjects with bleeding-related AEs ([7]; haematochezia at 25 mg (one), haematuria at 50 mg (two), all mild): Three subjects had bleeding-related AEs | serious AEs or major bleeding-related events ([7]; single oral doses 0.5–50 mg): no serious AEs or major bleeding-related events | dose-limiting AEs ([7]; single oral doses of up to 50 mg): No dose-limiting AEs were observed | elevated alanine transaminase level ([8]; one subject, discontinued, 10 mg): 3 × upper limit of normal [ULN] | elevations in aspartate aminotransferase and gamma-glutamyl transferase levels ([8]; same one subject, 10 mg): < 2 × ULN | bleeding-related AEs ([8]; single 10 mg doses): no bleeding-related AEs | serious AEs or major bleeding-related events ([8]; single 10 mg doses, fed and fasted): no serious AEs or major bleeding-related events | dose proportionality of Cmax, AUC(0,∞) and AUC(0,t) (0.5–50 mg): increased approximately proportionally to dose | Inter-subject variability, %CV for Cmax and AUC (across all doses, regardless of formulation): approximately 30% | increase in median tmax with food [9]: 1 h | bioavailability [10]: ~50% | antithrombotic effects (venous thrombosis): potent antithrombotic effects | prevention of thromboembolic events vs enoxaparin 40 mg daily (thromboembolic events): superior to enoxaparin | half-life (clinical [11]; 10 mg, half-life, single doses, overall conclusion): ~12 h | half-life (clinical [11]; t1/2, range, doses that provided sufficient data to characterize the terminal elimination phase (i.e. 5–50 mg)): 7 to 27 h | AUC(0-inf) (clinical [11]; 0.5 mg): 61.9 ng·h/mL | AUC(0-t) (clinical [11]; 0.5 mg): 52.7 ng·h/mL | Cmax (clinical [11]; 0.5 mg): 9.1 ng/mL | AUC(0-inf) (clinical [11]; 1 mg): 174 ng·h/mL | AUC(0-t) (clinical [11]; 1 mg): 163 ng·h/mL | Cmax (clinical [11]; 1 mg): 23.5 ng/mL | AUC(0-inf) (clinical [11]; 2.5 mg): 438 ng·h/mL | AUC(0-t) (clinical [11]; 2.5 mg): 421 ng·h/mL | Cmax (clinical [11]; 2.5 mg): 52.5 ng/mL | AUC(0-inf) (clinical [11]; 5 mg): 1020 ng·h/mL | AUC(0-t) (clinical [11]; 5 mg): 977 ng·h/mL | Cmax (clinical [11]; 5 mg): 105 ng/mL | AUC(0-inf) (clinical [11]; 10 mg): 1300 ng·h/mL | AUC(0-t) (clinical [11]; 10 mg): 1270 ng·h/mL | Cmax (clinical [11]; 10 mg): 176 ng/mL | AUC(0-inf) (clinical [11]; 25 mg): 4010 ng·h/mL | AUC(0-t) (clinical [11]; 25 mg): 3870 ng·h/mL | Cmax (clinical [11]; 25 mg): 365 ng/mL | AUC(0-inf) (clinical [11]; 50 mg): 7560 ng·h/mL | AUC(0-t) (clinical [11]; 50 mg): 7100 ng·h/mL | Cmax (clinical [11]; 50 mg): 685 ng/mL | Tmax (clinical [11]; oral solution (0.5–2.5 mg)): 1.5 to 1.8 h | Tmax (clinical [11]; oral tablet (5–50 mg)): 2.5 to 3.3 h | AUC(0-t) (clinical [12]; 10 mg fasted): 1730 ng·h/mL | AUC(0-t) (clinical [12]; 10 mg fed): 1810 ng·h/mL | AUC(0-inf) (clinical [12]; 10 mg fasted): 1790 ng·h/mL | AUC(0-inf) (clinical [12]; 10 mg fed): 1870 ng·h/mL | Cmax (clinical [12]; 10 mg fasted): 151 ng/mL | Cmax (clinical [12]; 10 mg fed): 165 ng/mL | half-life (clinical [12]; half-life, food effect study): ~11.5 h

[H]/N=C(/N)c1ccc(NCc2nc3cc(C(=O)N(CCC(=O)O)c4ccccn4)ccc3n2C)cc1 [dabigatran]
effect of food on extent of absorption [13]: did not affect the extent of absorption

O=C(NC[C@H]1CN(c2ccc(N3CCOCC3=O)cc2)C(=O)O1)c1ccc(Cl)s1 [rivaroxaban]
increase in AUC(0,∞) with food [14, 15]: 28% | increase in Cmax with food [14, 15]: 41% | increase in AUC(0,∞) with food [14, 16]: 23% | increase in Cmax with food [14, 16]: 74%
